Laboratory results from PMC4448987, “A neuroligin-1-derived peptide stimulates phosphorylation of the NMDA receptor NR1 subunit and rescues MK-801-induced decrease in long-term potentiation and memory impairment” (Pharmacology Research & Perspectives, 2015).
Structures can show the parent of a compound that is named as a salt.

How the values were obtained:
male Wistar rats [1] = assay: Y maze test (spontaneous alternation); assay type: in vivo, rat; settings: n = 6-12
Method: NMDA-mediated effects of Neurolide-1 on spatial working memory performance was assessed by recording spontaneous alternation behavior in a Y maze test performed as described previously (Wegener et al. [2011]), (See Data S1). Initially, adult male Wister rats (420–490 g, n = 6–12; Charles River) were injected s.c., three times at 28, 4, and 2 h before start of the Y maze test. One group received Neurolide-1, saline, and neurolide-1 in this order. Another group received saline, MK-801, and saline in this order. A third group received neurolide-1, MK-801, and neurolide-1 in this order. And control group received saline at all times. In a second setup we tested the effect of neurolide-1 in very young male Wistar rats (4-weeks old) which received a s.c., injection of neurolide-1 or saline 2 h prior to testing them in the Y-maze (n = 11–15). Terminally, rats were rapidly and humanely rendered unconscious by concussive stunning and euthanized by cervical dislocation.
The maze was made of gray polyvinyl chloride, with three identical arms (425 mm length × 225 mm height × 145 mm width) mounted symmetrically to an equilateral triangular center section. Each rat was placed at the end of one arm and allowed to explore the apparatus freely for 8 min. The sequence and number of all arm entries were recorded for each animal throughout the testing period. An alternation was defined as entries into all three arms on consecutive occasions. Therefore, the number of maximal alternation was the total number of arm entries minus 2, and the percentage of alternation was calculated as (actual alternations / maximal alternations) × 100. The total number of arms entered during the sessions was also determined (Yamaguchi et al, 2006). Data were eliminated in cases in which the number of total arm entries was less than 10 or when the rat escaped from the Y maze. After each trial, the Y maze was cleaned with 1% Virkon S (Pharmaxim, Helsingborg, Sweden).

[2] = MK-801 0.1 mg/kg, cited from earlier work
male Wistar rats [3] = assay: Spatial memory in the Morris water maze; assay type: in vivo; settings: rat, n = 12
Method: The Morris water-maze test (Morris [1984]) was performed as previously described (Kraev et al. [2011]) with slight modifications (see Data S1). Male Wistar rats (Charles River), weighing 150–200 g on the day of arrival were used. To investigate for potential effects on memory consolidation, neurolide-1 was injected immediately after the training sessions on day 1 and 2 (n = 12 in each group). To test for potential effects on memory acquisition neurolide-1 was injected 2 h before start of training on training day 1 and 2 (n = 12 in each group). Finally, to test for potential effects on MK-801-induced learning deficiencies neurolide-1 was injected 2 h before start of training on day 2 and 3 in animals, which had received an injection with MK-801 30 min earlier (n = 6–9 in each group). In a slightly modified version of the MK-801 experiments a group of animals received a neurolide-1 injection immediately after the training sessions on day 1, and then a neurolide-1 injection 2 h before start of training on day 2, preceded by an MK-801 injection 30 min earlier (n = 12 in each group). Terminally, rats were rapidly and humanely rendered unconscious by concussive stunning and euthanized by cervical dislocation.
The Morris water maze test (Morris, 1984) was conducted in a 160 cm wide circular black tank placed in a dimly lit room and filled with 21°C water up to 20 cm from the top. The tank was surrounded by visual orientation marks, and a 10 cm wide escape platform was placed 1.5 cm below the water level for it to be unseen. A video camera was placed above the tank and connected to a computerized tracking system (Ethovision 3.1, Noldus IT, Wageningen, Holland). The tank was divided into four equal-size quadrants that also served as starting positions. The latency to locate the platform, time spent swimming, and swimming speed were scored within the defined zones (i.e., total area, quadrants, and a platform circle that was 60 cm in diameter with the center in the original platform location). Prior to training, the rats were handled 2 min daily for 5 days to minimize stress during the experiments.
Reference memory training consisted of three consecutive trials daily for 3 days. Each trial began with placing the animal in the water facing the wall of the pool. The starting position differed for each trial but was identical for all animals. In each trial, the animal was allowed 90 s to locate the platform. […] After each trial, the rats were allowed 20 s of orientation time on the platform and then removed from the pool for 20 s before the next trial was initiated. After the last trial each day, the animals were dried and returned to their home cages.
To test for effects on long-term memory, the animals were tested in a probe trial 24 h after the last reference memory training. In the probe trial, the platform was removed, and the animals began from a position in a quadrant adjacent to the original platform quadrant. The rats were allowed to swim for 60 s, after which the trial was stopped.

[4] = tested on: hippocampal slices, CA3-CA1 synapse (fEPSP slope); assay: LTP in acute hippocampal slices from mice injected s.c.; assay type: in vivo, C57BL/6N mice; settings: mice injected with MK-801 0.1 mg/kg s.c. alone, 1 h before sacrifice; slope 25-30 min after HFS vs before; mean ± SEM, n = 6
Method: Juvenile C57BL/6N mice of both sexes (postnatal day 16–24; Taconic, Ejby, Denmark) were injected subcutaneously (s.c.) with 10 mg/kg of the neurolide-1 peptide solution (10 mg/mL) and again 23 h later with 10 mg/kg of the neurolide-1 peptide solution (10 mg/mL) and 0.1 mg/kg MK-801 solution (0.025 mg/mL). Mice receiving the injection with the MK-801 solution only or untreated mice served as control groups. The young mice were rapidly and humanely euthanized with a minimum of distress by decapitation at a time point corresponding to 24 h after first injection. Preceding anesthetic was omitted to preserve the tissue free of drug residues and brain slice functions as unaltered as possible when performing the physiological measurements. After decapitation, the brain was removed. […]
Measurements were made in oxygenated aCSF at room temperature (1.1 mL/min). […] The field potential in the stratum radiatum of the CA1 area of the hippocampus was recorded with an extracellular glass microelectrode (4–6 MΩ, filled with aCSF), positioned at least 500 μm away from the stimulation electrode. […]

[5] = tested on: NMDA receptor NR1 subunit (serine 897); assay: NMDA receptor phosphorylation assay (immunoblot, anti-phospho-Ser897-NR1) in cultured cortical neurons; assay type: cell-based, Wistar rat; settings: cultured rat cortical neurons, 5 min stimulation, NL1 ectodomain up to 5.4 nmol/L, four independent experiments
Method: Cortical neurons were obtained from Wistar rat embryos at embryonic day 19, of both sexes, basically as previously described (Maar et al. [1997]) (see Data S1). Briefly, animals were rendered unconscious by concussive stunning and euthanized by cervical dislocation. Hereafter, the embryonic brains were collected and cortical neurons were dissociated and seeded in 60-mm tissue culture dishes coated with 1 μg/mL of poly-D-lysine (Sigma-Aldrich, St. Louis, MO) and grown for 8 days before treatment. Then, the cultures were stimulated with either the NL1 ectodomain (0.2, 0.6, 1.8, and 5.4 nmol/L) or neurolide-1 (0.1, 0.3, 1, and 2.7 μmol/L) for 5 min. The cells were lysed, and proteins were resolved by sodium dodecyl sulfate-polyacrylamide gel electrophoresis followed by immunoblotting using rabbit anti-Ser897-NR1 antibody (1:500; Millipore, Billerica, MA), mouse anti-β-tubulin antibody (1:50,000; Sigma-Aldrich), and IRDye secondary antibodies (Odyssey, Lincoln, NE). The bands were visualized using the Odyssey CLX Infrared Imaging System (Odyssey). Four independent experiments with stimulation by NL1 ectodomain and eight independent experiments with stimulation by neurolide-1 were performed.

Row | Molecule | alternation rate (male Wistar rats [1]; adult rats 420-490 g, MK-801 0.1 mg/kg s.c. 4 h before test) [%] | total number of arm entries, single treatment (male Wistar rats [1]; adult rats, peptide alone or MK-801 alone) | time after injection at which the increase in stereotypy peaked ([2]; returned to baseline 2 h later, ref Homayoun et al. [2004], Su et al. [2007]) [min] | motility ([2]; ref Verma and Moghaddam [1996], Homayoun et al. [2004]) | learning (escape latency) in the water maze (male Wistar rats [3]; MK-801 0.1 mg/kg s.c. on day 2, 2.5 h before first training session) | velocity in the water maze (male Wistar rats [3]; MK-801 0.1 mg/kg s.c. with or without neurolide-1 10 mg/kg s.c. (long-term regimen)) | increase of fEPSP slope after high-frequency stimulation (LTP) [4] [%] | effect on NR1 phosphorylation at higher concentrations [5]
1 | C[C@]12N[C@H](Cc3ccccc31)c1ccccc12 [MK-801, (5S,10R)-(+)-5-methyl-10,11-dihydro-5H-dibenzo[a,d]cyclohepten-5,10-imine maleate] | ~50 | did not change | 40 | induce hypermotility | strongly inhibited learning | Neither treatments affected velocity | 27 ± 5 | –
2 | NL1: rat recombinant NL1 ectodomain obtained from R&D Systems (protein, UniProt Q62765 46-697, looked up, extracellular domain, rat recombinant NL1 ectodomain obtained from R&D Systems) extracellular domain: QKLDDVDPLVTTNFGKIRGIKKELNNEILGPVIQFLGVPYAAPPTGEHRFQPPEPPSPWSDIRNATQFAPVCPQNIIDGRLPEVMLPVWFTNNLDVVSSYVQDQSEDCLYLNIYVPTEDVKRISKECARKPGKKICRKGDIRDSGGPKPVMVYIHGGSYMEGTGNLYDGSVLASYGNVIVITVNYRLGVLGFLSTGDQAAKGNYGLLDLIQALRWTSENIGFFGGDPLRITVFGSGAGGSCVNLLTLSHYSEGNRWSNSTKGLFQRAIAQSGTALSSWAVSFQPAKYARILATKVGCNVSDTVELVECLQKKPYKELVDQDVQPARYHIAFGPVIDGDVIPDDPQILMEQGEFLNYDIMLGVNQGEGLKFVENIVDSDDGVSASDFDFAVSNFVDNLYGYPEGKDVLRETIKFMYTDWADRHNPETRRKTLLALFTDHQWVAPAVATADLHSNFGSPTYFYAFYHHCQTDQVPAWADAAHGDEVPYVLGIPMIGPTELFPCNFSKNDVMLSAVVMTYWTNFAKTGDPNQPVPQDTKFIHTKPNRFEEVAWTRYSQKDQLYLHIGLKPRVKEHYRANKVNLWLELVPHLHNLNDISQYTSTTTKVPSTDITLRPTRKNSTPVTSAFPTAKQDDPKQQPSPFSVDQRDYSTELS | – | – | – | – | – | – | – | did not have a statistically significant effect
